pIC50: −log10 of the molar value. Values after ≈ are worked out from the molar mass of the structure shown. Where a name gives a salt, the structure may show the parent alone. Read-outs that look alike come from different tables or passages of the source.
Tests used:
E.faecalis (Ef) = assay: Broth microdilution MIC against E.faecalis (Ef); format: cell-based; details: Enterococcus faecalis
Protocol: (§1) A certified BSL-2 laboratory was used for testing. Compounds were evaluated using the broth microdilution minimum inhibitory concentration (MIC) and minimum bactericidal concentration (MBC) assays defined by Clinical and Laboratory Standards Institute (CLSI) in the M26-A guideline against S.aureus (Sa), E.coli (Ec), K.pneumoniae (Kp), A.baumannii (Ab), E.faecalis (Ef) and P.aeruginosa (Pa).
(§2) MICs were determined using the Clinical Laboratory and Standards Institute (CLSI) Broth Microdilution Method with slight modification. Clinical and Laboratory Standards Institute (2012). “Methods for dilution antimicrobial susceptibility tests for bacteria that grow aerobically; approved standard, 9th ed. M07-A9. Clinical and Laboratory Standards Institute, Wayne, PA.” Serial two-fold dilutions of compounds are prepared in sterile clear roundbottom 96-well plates.
(§3) To prepare microdilution trays, two-fold dilutions of antimicrobial agent are prepared in growth medium: Cation-Adjusted Mueller-Hinton Broth (CAMHB), or CAMHB supplemented with sodium bicarbonate (6.25 or 25 mM final concentration prepared from a 1.0 M stock solution) or CAMHB supplemented with heat inactivated human serum (Fisher Cat. # BP2657100) 0-50% by adding 200 µL of the highest concentration to be tested (64 µg/mL, for example) in row A, mixing and transferring 100 µL from row A to 100 µL growth medium in row B, then repeating the mixing and transferring through row H of the 96-well plate, discarding the excess 100 µL remaining. This slight modification to the CLSI protocol enables evaluation of MICs for 3 compounds per plate in triplicate, albeit with only 8 compound dilutions (CLSI protocol enables 2 compounds in triplicate with 10 dilutions). Bacterial suspensions are added to a final concentration of 5 × 10^4 CFU/well by adding 5 µL of a 1:10 dilution of a 0.5 McFarland suspension (1 × 10^8 CFU/mL) for each bacterium evaluated. Bacterial suspensions were prepared using the growth method described by CLSI. Well-isolated colonies (3-5 from an agar plate) were selected using a sterile loop and used to inoculate a tube containing 4 mL of CAMHB. The cultures are incubated at 35 ± 2° C. until it achieves or exceeds the turbidity of the 0.5 McFarland standard, determined by measuring A600nm (usually two to six hours). When growth exceeds a 0.5 McFarland standard, the turbidity is adjusted with broth to be equivalent to a 0.5 McFarland standard.

[1] = target: Rabbit Reticulocyte Lysate (eukaryotic protein synthesis); assay: Rabbit Reticulocyte Lysate: inhibition of eukaryotic protein synthesis (luciferase); format: biochemical; details: 30° C. for 90 minutes, read-out: retic. IC50
Protocol: Inhibition of eukaryotic protein synthesis was determined using the Rabbit Reticulocyte Lysate System, Nuclease-Treated from Promega (catalog #L-4960) with slight modifications to the manufacturer’s protocol. Compounds were serial diluted in 0.5 mL microcentrifuge tubes by mixing and transferring 50 µL from the highest concentration to 50 µL of water, mixing and transferring 50 µL of this 2-fold dilution to 50 µL of water. This mixing and transferring was repeated so that there are a total of 8 tubes with serial dilutions of compound at 10× the desired screening concentration that are ultimately diluted to 1× by the addition of rabbit reticulocyte luciferase synthesis mixture. Serial dilutions of compounds were added (2.5 µL) to wells in a black round bottom 96-well plate. Water (2.5 µL) was used as a “no inhibitor” control in 4 wells/plate. No RNA control reaction mixture (2 µL; see below) was used as a control in 4 wells/plate for background luminescence. Rabbit reticulocyte luciferase synthesis mixture (22.5 µL; see below) was added to wells with compounds or water mixture and incubated at 30° C. for 90 minutes. Luciferase assay reagent (25 µL) was added with luminescence measured using a BioTek Synergy HTX plate reader. % Inhibition was determined relative to no inhibitor controls.
Rabbit reticulocyte luciferase synthesis mixture: • 1,000 µL rabbit reticulocyte lysate • 5.7 µL Luciferase Control RNA (1 µg/ µL) • 26 µL complete amino acid mixture • 395 µL water
No RNA Control • 70 µL rabbit reticulocyte lysate • 2 µL complete amino acid mixture • 28 µL water

A.baumannii (Ab) = assay: Broth microdilution MIC against A.baumannii (Ab); format: cell-based; details: for MIC: Acinetobacter baumannii
Protocol: as §1, §2, §3

S.aureus (Sa) = assay: Broth microdilution MIC against S.aureus (Sa); format: cell-based; details: Staphylococcus aureus
Protocol: as §1, §2, §3

E.coli (Ec) = assay: Broth microdilution MIC against E.coli (Ec); format: cell-based; details: for MIC: Escherichia coli
Protocol: as §1, §2, §3

P.aeruginosa (Pa) = assay: Broth microdilution MIC against P.aeruginosa (Pa); format: cell-based; details: for MIC: Pseudomonas aeruginosa
Protocol: as §1, §2, §3

[2] = test system: E.coli S30 extract (bacterial protein synthesis); assay: E.coli S30 extract: inhibition of bacterial protein synthesis (luciferase); format: biochemical; details: 37° C. for 1 hour
Protocol: E.coli S30 extract: Inhibition of bacterial protein synthesis was determined using the E.coli S30 Extract System for Circular DNA (Promega catalog #L-2010) and Luciferase Assay Reagent (Promega catalog #E1500) with slight modifications to a published protocol. Fyfe, C., Sutcliffe, J.A. and Grossman, T.H. (2012) “Development and characterization of a Pseudomonas aeruginosa in vitro coupled transcription-translation assay system for evaluation of translation inhibitors” J. Microbiol. Methods 90(3), 256-261.
Compounds were serial diluted in 0.5 mL microcentrifuge tubes by mixing and transferring 50 µL from the highest concentration to 50 µL of water, mixing and transferring 50 µL of this 2-fold dilution to 50 µL of water. This mixing and transferring was repeated so that there are a total of 8 tubes with serial dilutions of compound at 10× the desired screening concentration that are ultimately diluted to 1× by the addition of S30 luciferase synthesis mixture. Serial dilutions of compounds were added (2 µL) to wells in a black round bottom 96-well plate. Water (2 µL) was used as a “no inhibitor” control in 4 wells/plate. No DNA control reaction mixture (20 µL; see below) was used as a control in 4 wells/plate for background luminescence. S30 luciferase synthesis mixture (18 µL; see below) was added to wells with compounds or water mixture and incubated at 37° C. for 1 hour. Reactions were stopped by transferring to 4° C. refrigerator for 5 minutes then 25 µL of luciferase activity mix was added. Luminescence was measured using a BioTek Synergy HTX plate reader. % Inhibition was determined relative to no inhibitor controls.
S30 luciferase synthesis mixture: • 445 µL S30 extract, circular • 712 µL S30 Premix without amino acids • 4.45 µL pBESTluc™ DNA (1 µg/ µL) • 78 µL complete amino acid mixture • 267 µL water
No DNA control: • 20 µL S30 extract, circular • 32 µL S30 Premix without amino acids • 7 µL complete amino acid mixture • 21 µL water

[3] = CAMHB supplemented with sodium bicarbonate 25 mM, read-out: Ef +bicarb 25 (MIC)
[4] = CAMHB supplemented with sodium bicarbonate 25 mM, read-out: Ab +bicarb 25 (MIC)
[5] = CAMHB supplemented with sodium bicarbonate 25 mM, read-out: Sa + bicarb 25 (MIC)
[6] = CAMHB supplemented with sodium bicarbonate 25 mM, read-out: E.coli + bicarb 25 (MIC)
[7] = CAMHB supplemented with sodium bicarbonate 25 mM, read-out: Pa +bicarb 25 (MIC)
[8] = CAMHB supplemented with sodium bicarbonate 25 mM
[9] = CAMHB supplemented with sodium bicarbonate 6.25 mM, read-out: Ef +bicarb 6.25 (MIC)
[10] = CAMHB supplemented with sodium bicarbonate 6.25 mM, read-out: Ab +bicarb 6.25 (MIC)
[11] = CAMHB supplemented with sodium bicarbonate 6.25 mM, read-out: Sa + bicarb 6.25 (MIC)
[12] = CAMHB supplemented with sodium bicarbonate 6.25 mM, read-out: E. coli + bicarb 6.25 (MIC)
[13] = CAMHB supplemented with sodium bicarbonate 6.25 mM, read-out: Pa +bicarb 6.25 (MIC)

Structure (SMILES) | MIC (E.faecalis (Ef); [3]) [µg/mL] | pIC50 [1] | MIC (A.baumannii (Ab); [4]) [µg/mL] | MIC (S.aureus (Sa); [5]) [µg/mL] | MIC (E.coli (Ec); [6]) [µg/mL] | MIC (P.aeruginosa (Pa); [7]) [µg/mL] | pIC50 [2] | MIC (E.faecalis (Ef); read-out: Ef +bicarb 25 (MIC)) [µg/mL] | Ab +bicarb 25 (MIC) (A.baumannii (Ab); [8]) | MIC (S.aureus (Sa); read-out: Sa + bicarb 25 (MIC)) [µg/mL] | E.coli + bicarb 25 (MIC) (E.coli (Ec); [8]) | MIC (E.coli (Ec); read-out: E. coli + bicarb 6.25 (MIC)) [µg/mL] | Pa +bicarb 25 (MIC) (P.aeruginosa (Pa); [8]) | MIC (E.faecalis (Ef); [9]) [µg/mL] | MIC (A.baumannii (Ab); [10]) [µg/mL] | MIC (S.aureus (Sa); [11]) [µg/mL] | MIC (E.coli (Ec); [12]) [µg/mL] | MIC (P.aeruginosa (Pa); [13]) [µg/mL]
CC(C)(N)C(=O)N1CCN(C(=O)Nc2ccn(-c3ccc4c(c3)OCC(N3CC[C@H](CN)C3)C4)c(=O)n2)CC1 (some centres unmarked) [Compound 18] | 8 to 32 (≈ 14.9 to 59.4 µM) | ≤ 6.00 | 8 to 32 (≈ 14.9 to 59.4 µM) | < 8 | < 8 | 8 to 32 (≈ 14.9 to 59.4 µM) | ≤ 6.00 |  |  |  |  |  |  |  |  |  |  | 
CC(C)(N)C(=O)N1CCN(C(=O)Nc2ccn(-c3ccc4c(c3)CCC(NC3CC5(CC(N)C5)C3)C4)c(=O)n2)CC1 (centres unmarked) [Compound 8] | < 8 | ≤ 6.00 | 8 to 32 (≈ 14.2 to 56.9 µM) | < 8 | < 8 | 8 to 32 (≈ 14.2 to 56.9 µM) | > 6.30 |  |  |  |  |  |  |  |  |  |  | 
CC(C)(N)C(=O)N1CCN(C(=O)Nc2ccn(-c3ccc4c(c3)CCC(N[C@H]3CC[C@H](N)C3)C4)c(=O)n2)CC1 (stereo partly drawn) [Compound 9, 4-(2-amino-2-methylpropanoyl)-N-(1-(6-(((1S,3S)-3-aminocyclopentyl)amino)-5,6,7,8-tetrahydronaphthalen-2-yl)-2-oxo-1,2-dihydropyrimidin-4-yl)piperazine-1-carboxamide hydrochloride salt] |  | ≤ 6.00 |  |  |  |  | > 6.30 | < 8 | + (An MIC value (µg/mL) that is 32 µg/mL or greater) | < 8 | +++ (An MIC value (µg/mL) that is less than 8 µg/mL) | < 8 | + (An MIC value (µg/mL) that is 32 µg/mL or greater) |  |  |  |  | 
CC(C)(N)C(=O)N1CCN(C(=O)Nc2ccn(-c3ccc4c(c3)CCC(N[C@H]3C[C@H](N)C3)C4)c(=O)n2)CC1 (some centres unmarked) [Compound 29] |  | ≤ 6.00 |  |  |  |  | > 6.30 |  |  |  |  |  |  | 8 to 32 (≈ 15.3 to 61.2 µM) | > 32 | < 8 | < 8 | > 32
CC(C)(N)C(=O)N1CCN(C(=O)Nc2ccn(-c3ccc4c(c3)OCC(N3CC[C@@H](CN)C3)C4)c(=O)n2)CC1 (some centres unmarked) [Compound 14] | 8 to 32 (≈ 14.9 to 59.4 µM) | ≤ 6.00 | 8 to 32 (≈ 14.9 to 59.4 µM) | < 8 | < 8 | 8 to 32 (≈ 14.9 to 59.4 µM) | ≤ 6.00 |  |  |  |  |  |  |  |  |  |  | 
CC(C)(N)C(=O)N1CCN(C(=O)Nc2ccn(-c3ccc4c(c3)CCC(N[C@H]3C[C@@H](N)C3)C4)c(=O)n2)CC1 (stereo partly drawn) [Compound 30, 4-Amino-2-Methylpropanoyl)-N-(1-(6-(((Cis-3-Aminocyclobutyl)Amino)-5,6,7,8-Tetrahydronaphthalen-2-Yl)-2-Oxo-1,2-Dihydropyrimidin-4-Yl)Piperazine-1-Carboxamide Hydrochloride Salt] |  | ≤ 6.00 |  |  |  |  | > 6.30 |  |  |  |  |  |  | 8 to 32 | > 32 | < 8 | < 8 | > 32
CC(C)(N)C(=O)N1CCN(C(=O)Nc2ccn(-c3ccc4c(c3)CCC(N[C@H]3CC[C@@H](N)C3)C4)c(=O)n2)CC1 (single isomer, unassigned) [Compound 33, Hydrochloride Salt] |  | ≤ 6.00 |  |  |  |  | > 6.30 |  |  |  |  |  |  | > 32 | > 32 | 8 to 32 | < 8 | > 32
CC(C)(N)C(=O)N1CCN(C(=O)Nc2ccn(-c3ccc4c(c3)CC(N[C@H]3CC[C@H](N)CC3)C4)c(=O)n2)CC1 (some centres unmarked) [Compound 38, Hydrochloride Salt] |  | ≤ 6.00 |  |  |  |  | > 6.30 |  |  |  |  |  |  | > 32 | > 32 | 8 to 32 | < 8 | > 32
CC(C)(N)C(=O)N1CCN(C(=O)Nc2ccn(-c3ccc4c(c3)OCC(N3CC5CC5(CN)C3)C4)c(=O)n2)CC1 (centres unmarked) [Compound 23] |  | ≤ 6.00 |  |  |  |  | ≤ 6.00 |  |  |  |  |  |  | > 32 | > 32 | > 32 | 8 to 32 | > 32
CC(C)(N)C(=O)N1CCN(C(=O)Nc2ccn(-c3ccc4c(c3)CCC(N[C@H]3CC[C@H](N)C3)C4)c(=O)n2)CC1 (single isomer, unassigned) [Compound 27, Hydrochloride Salt] |  | ≤ 6.00 |  |  |  |  | > 6.30 |  |  |  |  |  |  | < 8 | > 32 | < 8 | < 8 | > 32
CC(C)(N)C(=O)N1CCN(C(=O)Nc2ccn(-c3ccc4c(c3)CCC(N3CC(CN)C3)C4)c(=O)n2)CC1 (centres unmarked) [Compound 40, Hydrochloride Salt] |  | ≤ 6.00 |  |  |  |  | > 6.30 |  |  |  |  |  |  | 8 to 32 | > 32 | < 8 | < 8 | > 32
CN(C1CCc2cc(-n3ccc(NC(=O)N4CCN(C(=O)C(C)(C)N)CC4)nc3=O)ccc2C1)C1CC2(CC(N)C2)C1 (centres unmarked) [Compound 11] | < 8 | ≤ 6.00 | > 32 | < 8 | < 8 | > 32 | 6.00 to 6.30 |  |  |  |  |  |  |  |  |  |  | 
CC(C)(N)C(=O)N1CCN(C(=O)Nc2ccn(-c3ccc4c(c3)CC(NC[C@H]3C[C@H](N)C3)C4)c(=O)n2)CC1 (some centres unmarked) [Compound 37, Hydrochloride Salt] |  | ≤ 6.00 |  |  |  |  | > 6.30 |  |  |  |  |  |  | > 32 | > 32 | 8 to 32 | < 8 | > 32

Reference: patent US20230278987A1, “Antimicrobial Compounds and Methods” (Curza Global, LLC, priority 2019, published 2023)
